# Assay results taken from patent publication US10292412B2, “High solubility natural sweetener compositions” (KRAFT FOODS GLOBAL BRANDS LLC, priority 2012, dated 2019).
# Where “and” joins values, the source holds several entries; their conditions need not be identical. Equal values may be shown once.
# Legend:
# [1] = Example 2: solubility of rebaudioside A in liquid concentrates with varying water, acid and alcohol; type: physicochemical; set-up: scale not given here
# Protocol: Liquid concentrate formulations were prepared including varying levels of rebaudioside A, water, alcohol, and acid. The solubility was measured at various concentrations of each of the components and the results are included in the tables below: […]
# [2] = Example 6: solubility rating of rebaudioside A liquid concentrate after 33 months at 35° F.; type: physicochemical; conditions: water 62.27%, Citric Acid 16.96%, Potassium Citrate 1.4%, Flavor (80%-90% Ethanol) 11%, Reb A 4.4%, Malic Acid 3.89%, Shade 0.08%
# Protocol: A liquid concentrate sample was prepared using rebaudioside A from Cargill. Samples were measured for solubility as defined in sections 46-47. The samples were rated as 3 on the scale after 33 months at 35° F. The formula is included in the table below: […]
smiles,measurement,setting,value
"C=C1C[C@@]23CC[C@H]4[C@@](C)(CCC[C@@]4(C)C(=O)O[C@@H]4O[C@H](CO)[C@@H](O)[C@H](O)[C@H]4O)[C@@H]2CC[C@]1(O[C@@H]1O[C@H](CO)[C@@H](O)[C@H](O[C@@H]2O[C@H](CO)[C@@H](O)[C@H](O)[C@H]2O)[C@H]1O[C@@H]1O[C@H](CO)[C@@H](O)[C@H](O)[C@H]1O)C3 [Reb A, rebaudioside A]",Response 1 Solubility,[1]; Water/Phosphoric Acid/Ethanol (190 Proof)/RebA 39.10/39.10/15.99/5.82 ml,Insoluble
same,Response 1 Solubility,[1]; Water/Phosphoric Acid/Ethanol (190 Proof)/RebA 47.96/0.00/47.96/4.08 ml,1
same,Response 1 Solubility,[1]; Water/Phosphoric Acid/Ethanol (190 Proof)/RebA 47.96/47.96/0.00/4.08 ml,Insoluble
same,Response 1 Solubility,[1]; Water/Phosphoric Acid/Ethanol (190 Proof)/RebA 61.63/0.00/30.81/7.56 ml,4
same,Response 1 Solubility,[1]; Water/Phosphoric Acid/Ethanol (190 Proof)/RebA 61.63/30.81/0.00/7.56 ml,Insoluble
same,Response 1 Solubility,[1]; Water/Phosphoric Acid/Ethanol (190 Proof)/RebA 62.21/15.99/15.99/5.82 ml,5
same,Response 1 Solubility,[1]; Water/Phosphoric Acid/Ethanol (190 Proof)/RebA 66.26/0.00/33.13/0.60 ml,1
same,Response 1 Solubility,[1]; Water/Phosphoric Acid/Ethanol (190 Proof)/RebA 92.44/0.00/0.00/7.56 ml,5
same,Response 1 Solubility,[1]; Water/Phosphoric Acid/Ethanol (190 Proof)/RebA 99.40/0.00/0.00/0.60 ml,3 and 2
same,Response 1 Solubility,[1]; Water/Tartaric Acid/Ethanol (190 Proof)/RebA 18.70369333/21.97/51.77/7.56 ml,1
same,Response 1 Solubility,[1]; Water/Tartaric Acid/Ethanol (190 Proof)/RebA 19.2674479/6.63/71.76/2.34 ml,2
same,Response 1 Solubility,[1]; Water/Tartaric Acid/Ethanol (190 Proof)/RebA 19.2674479/14.30/62.35/4.08 ml,2
same,Response 1 Solubility,[1]; Water/Tartaric Acid/Ethanol (190 Proof)/RebA 30.1664432/27.48/41.75/0.60 ml,1
same,Response 1 Solubility,[1]; Water/Tartaric Acid/Ethanol (190 Proof)/RebA 30.81333333/4.93/56.70/7.56 ml,2
same,Response 1 Solubility,[1]; Water/Tartaric Acid/Ethanol (190 Proof)/RebA 33.13173333/0.00/66.26/0.60 ml,1
same,Response 1 Solubility,[1]; Water/Tartaric Acid/Ethanol (190 Proof)/RebA 33.2952179/19.41/41.47/5.82 ml,1
same,Response 1 Solubility,[1]; Water/Tartaric Acid/Ethanol (190 Proof)/RebA 37.40738667/29.15/25.88/7.56 ml,1
same,Response 1 Solubility,[1]; Water/Tartaric Acid/Ethanol (190 Proof)/RebA 39.9320216/13.74/45.72/0.60 ml,1
same,Response 1 Solubility,[1]; Water/Tartaric Acid/Ethanol (190 Proof)/RebA 47.9588/0.00/47.96/4.08 ml,1
same,Response 1 Solubility,[1]; Water/Tartaric Acid/Ethanol (190 Proof)/RebA 49.4338911/26.16/22.06/2.34 ml,1
same,Response 1 Solubility,[1]; Water/Tartaric Acid/Ethanol (190 Proof)/RebA 49.51702667/12.11/30.81/7.56 ml,1
same,Response 1 Solubility,[1]; Water/Tartaric Acid/Ethanol (190 Proof)/RebA 57.8023437/16.05/22.06/4.08 ml,1
same,Response 1 Solubility,[1]; Water/Tartaric Acid/Ethanol (190 Proof)/RebA 60.3328864/39.06/0.00/0.60 ml,1
same,Response 1 Solubility,[1]; Water/Tartaric Acid/Ethanol (190 Proof)/RebA 61.92/9.00/25.00/4.08 ml,2
same,Response 1 Solubility,[1]; Water/Tartaric Acid/Ethanol (190 Proof)/RebA 65.18/8.00/21.00/5.82 ml,3
same,Response 1 Solubility,[1]; Water/Tartaric Acid/Ethanol (190 Proof)/RebA 65.44/8.00/19.00/7.56 ml,4
same,Response 1 Solubility,[1]; Water/Tartaric Acid/Ethanol (190 Proof)/RebA 65.4874479/6.63/22.06/5.82 ml,4
same,Response 1 Solubility,[1]; Water/Tartaric Acid/Ethanol (190 Proof)/RebA 66.26346667/0.00/33.13/0.60 ml,1
same,Response 1 Solubility,[1]; Water/Tartaric Acid/Ethanol (190 Proof)/RebA 68.22072/24.22/0.00/7.56 ml,2
same,Response 1 Solubility,[1]; Water/Tartaric Acid/Ethanol (190 Proof)/RebA 71.18/16.00/7.00/5.82 ml,2
same,Response 1 Solubility,[1]; Water/Tartaric Acid/Ethanol (190 Proof)/RebA 75.92/3.00/17.00/4.08 ml,4
same,Response 1 Solubility,[1]; Water/Tartaric Acid/Ethanol (190 Proof)/RebA 75.92/12.00/8.00/4.08 ml,3
same,Response 1 Solubility,[1]; Water/Tartaric Acid/Ethanol (190 Proof)/RebA 76.18/11.00/7.00/5.82 ml,4
same,Response 1 Solubility,[1]; Water/Tartaric Acid/Ethanol (190 Proof)/RebA 77.0697916/18.85/0.00/4.08 ml,2
same,Response 1 Solubility,[1]; Water/Tartaric Acid/Ethanol (190 Proof)/RebA 78.92/5.00/12.00/4.08 ml,4
same,Response 1 Solubility,[1]; Water/Tartaric Acid/Ethanol (190 Proof)/RebA 84.92/3.00/8.00/4.08 ml,5
same,Response 1 Solubility,[1]; Water/Tartaric Acid/Ethanol (190 Proof)/RebA 86.3744288/13.02/0.00/0.60 ml,1
same,Response 1 Solubility,[1]; Water/Tartaric Acid/Ethanol (190 Proof)/RebA 92.44/0.00/0.00/7.56 ml,5
same,Response 1 Solubility,[1]; Water/Tartaric Acid/Ethanol (190 Proof)/RebA 99.3952/0.00/0.00/0.60 ml,2
same,Response 1 Solubility,[1]; Water/acid/alcohol/RebA 96.67/0.00/0.00/3.33 ml,5
same,Response 1 Solubility,[1]; Water/acid/alcohol/RebA 97.01/0.00/0.00/2.99 ml,5
same,Response 1 Solubility,[1]; Water/acid/alcohol/RebA 97.34/0.00/0.00/2.66 ml,5
same,Response 1 Solubility,[1]; Water/acid/alcohol/RebA 97.67/0.00/0.00/2.33 ml,5
same,Response 1 Solubility,[1]; Water/acid/alcohol/RebA 98.00/0.00/0.00/2.00 ml,5
same,Response 1 Solubility,[1]; Water/acid/alcohol/RebA 98.34/0.00/0.00/1.66 ml,5
same,Response 1 Solubility,[1]; Water/acid/alcohol/RebA 98.67/0.00/0.00/1.33 ml,5
same,Response 1 Solubility,[1]; Water/acid/alcohol/RebA 99.00/0.00/0.00/1.00 ml,5
same,Response 1 Solubility,[1]; Water/acid/alcohol/RebA 99.33/0.00/0.00/0.67 ml,2
same,Response 1 Solubility,[1]; Water/acid/alcohol/RebA 99.67/0.00/0.00/0.33 ml,1
same,solubility rating on the scale,[2],3 (a solubility of 3 may be represented by 1% to 5% v/v of pellet)
